IC50 data for 61 compounds are collected here from US7446117B2, “Cox-2 inhibiting pyridine derivatives” (Glaxo Group Limited, priority 2002, dated 2008).

SMILES strings stand for the structures.

The assay has as its target T1, microsomal h-COX2 (Homo sapiens, UniProt P35354).
T1 construct: made in house; host or cells: baculovirus infected SF9 cells (microsomal preparation)
T1 sequence (P35354 18-604): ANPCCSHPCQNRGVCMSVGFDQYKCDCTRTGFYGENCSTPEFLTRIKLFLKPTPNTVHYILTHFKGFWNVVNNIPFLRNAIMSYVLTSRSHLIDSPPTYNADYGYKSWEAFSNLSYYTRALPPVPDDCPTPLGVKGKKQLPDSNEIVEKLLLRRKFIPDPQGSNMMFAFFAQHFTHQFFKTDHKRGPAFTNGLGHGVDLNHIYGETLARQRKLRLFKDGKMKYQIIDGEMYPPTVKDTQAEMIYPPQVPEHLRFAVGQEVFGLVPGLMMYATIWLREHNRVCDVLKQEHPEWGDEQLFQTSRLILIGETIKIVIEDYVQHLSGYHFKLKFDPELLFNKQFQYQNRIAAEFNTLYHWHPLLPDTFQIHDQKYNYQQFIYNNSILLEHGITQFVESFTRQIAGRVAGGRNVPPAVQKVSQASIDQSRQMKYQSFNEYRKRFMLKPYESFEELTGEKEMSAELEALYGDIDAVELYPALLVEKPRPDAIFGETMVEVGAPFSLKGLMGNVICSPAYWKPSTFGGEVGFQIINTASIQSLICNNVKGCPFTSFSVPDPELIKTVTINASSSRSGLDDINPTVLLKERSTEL
In words: Microsomal assay: inhibitory activity against microsomal h-COX2. The format is biochemical. The settings on record: microsomal preparation from baculovirus infected SF9 cells; 1 hour incubation with compound; 0.1 μM arachidonic acid, 10 minutes; PGE2 by EIA; read-out: IC50 values for inhibition of COX-2. As for the experimental part: Biological Data Microsomal Assay
Inhibitory activity against microsomal h-COX2 was assessed against a microsomal preparation from baculovirus infected SF9 cells. An aliquot of microsomal preparation was thawed slowly on ice and a 1/40,000 dilution prepared from it into the assay buffer (sterile water, degassed with argon containing 100 mM HEPES (pH 7.4), 10 mM EDTA (pH7.4), 1 mM phenol, 1 mM reduced glutathione, 20 mg/ml gelatin and 0.001 mM Hematin). Once diluted the enzyme solution was then sonicated for 5 seconds (Branson sonicator, setting 4, 1 cm tip) to ensure a homogeneous suspension. 155 μl enzyme solution was then added to each well of a 96-well microtitre plate containing either 5 μl test compound (40× required test concentration) or 5 μl DMSO for controls. Plates were then mixed and incubated at room temperature for 1 hour. Following the incubation period, 40 μl of 0.5 μM arachidonic acid was added to each well to give a final concentration of 0.1 μM. Plates were then mixed and incubated for exactly 10 minutes (room temperature) prior to addition of 25 μl 1M HCl (hydrochloric acid) to each well to stop the reaction. 25 μl of 1M NaOH (sodium hydroxide) was then added to each well to neutralise the solution prior to determination of PGE2 levels by enzyme immunoassay (EIA).

`CCc1cc(NCc2ccccc2)nc(-c2ccc(S(C)(=O)=O)cc2)c1` [Example 93]: the IC50 is at most 500 nM.

Turning to `CC(C)CNc1cc(C(F)(F)F)cc(-c2ccc(S(C)(=O)=O)cc2)n1` [Example 19], the concentration for half-maximal inhibition (IC50) is at most 500 nM.

For `CCc1cc(-c2ccc(S(C)(=O)=O)cc2)nc(NCc2ccc(C)nc2)c1C#N` [Example 224], the IC50 was at most 500 nM.

Take `Cc1cc(NCc2ccnn2C)nc(-c2ccc(S(C)(=O)=O)cc2)c1` [Example 218]: the IC50 is at most 500 nM.

Consider `Cc1cc(-c2ccc(S(C)(=O)=O)cc2)nc(N(C)Cc2nccn2C)c1` [Example 110], for which the IC50 was at most 500 nM.

On to `CCc1cc(OCc2cccc(C)n2)nc(-c2ccc(S(C)(=O)=O)cc2)c1` [Example 135], for which the IC50 was at most 500 nM.

Take `Cc1cccc(COc2cc(C(F)(F)F)cc(-c3ccc(S(C)(=O)=O)cc3)n2)n1` [Example 184]: the IC50 is at most 500 nM.

Turning to `Cc1cc(NCc2cc(F)cc(F)c2)nc(-c2ccc(S(C)(=O)=O)cc2)c1` [Example 14], the IC50 is at most 500 nM.

For `CS(=O)(=O)c1ccc(-c2cc(C(F)(F)F)cc(NC3CCCCC3)n2)cc1` [Example 54, N-cyclohexyl-4-(trifluoromethyl)-6-[4-(methylsulfonyl)phenyl]pyridine-2-amine], the IC50 is at most 500 nM.

For the compound `Cc1cc(-c2ccc(S(C)(=O)=O)cc2)nc(N(C)Cc2nccn2C)c1C#N` [Example 205], the IC50 was at most 500 nM.

Consider `CCOc1ccc(Nc2cc(CC)cc(-c3ccc(S(C)(=O)=O)cc3)n2)cc1` [Example 154], for which the IC50 is at most 500 nM.

`CCc1cc(-c2ccc(S(C)(=O)=O)cc2)nc(OCc2ccccn2)c1Cl` [Example 220]: the IC50 was at most 500 nM.

On to `C[C@H](Nc1cc(C(F)(F)F)cc(-c2ccc(S(C)(=O)=O)cc2)n1)c1ccccc1` [Example 52], for which the IC50 is at most 500 nM.

In the case of `CCc1cc(OCc2cccnc2C)nc(-c2ccc(S(C)(=O)=O)cc2)c1` [Example 133], the IC50 was at most 500 nM.

Regarding `CS(=O)(=O)c1ccc(-c2cc(C(F)(F)F)cc(OCc3cccnc3)n2)cc1` [Example 166], the IC50 is at most 500 nM.

As to `CCc1cc(-c2ccc(S(C)(=O)=O)cc2)nc(NCc2cnn(C)c2)c1C#N` [Example 228], the IC50 was at most 500 nM.

With `Cc1cc(NCc2ccccn2)nc(-c2ccc(S(C)(=O)=O)cc2)c1` [Example 28], the IC50 was at most 500 nM.

Take `Cc1ncccc1Nc1cc(C(F)(F)F)cc(-c2ccc(S(C)(=O)=O)cc2)n1` [Example 160]: the IC50 was at most 500 nM.

With `CCc1cc(NCc2nc(C)cs2)nc(-c2ccc(S(C)(=O)=O)cc2)c1` [Example 142], the IC50 is at most 500 nM.

Consider `Cc1ccc(CNc2nc(-c3ccc(S(C)(=O)=O)cc3)cc(C)c2C#N)cn1` [Example 192], for which the IC50 is at most 500 nM.

As for `CCc1cc(NCc2ncnn2CC)nc(-c2ccc(S(C)(=O)=O)cc2)c1` [Example 232], the half-maximal inhibitory concentration (IC50) is at most 500 nM.

`Cc1ccc(Nc2cc(C(F)(F)F)cc(-c3ccc(S(C)(=O)=O)cc3)n2)c(C)n1` [Example 178]: the IC50 is at most 500 nM.

On to `Cc1cc(-c2ccc(S(C)(=O)=O)cc2)nc(N2CCCCC2)c1C` [Example 66], for which the IC50 is at most 500 nM.

As to `Cc1ccc(Oc2cc(C(F)(F)F)cc(-c3ccc(S(C)(=O)=O)cc3)n2)cn1` [Example 167], the IC50 is at most 500 nM.

As for `CCc1cc(NCC(C)C)nc(-c2ccc(S(C)(=O)=O)cc2)c1` [Example 47], the IC50 was at most 500 nM.

On to `CS(=O)(=O)c1ccc(-c2cc(C(F)(F)F)cc(NCc3cccs3)n2)cc1` [Example 174], for which the IC50 is at most 500 nM.

In the case of `CCc1cc(NCc2cnn(C)c2)nc(-c2ccc(S(C)(=O)=O)cc2)c1` [Example 115], the IC50 was at most 500 nM.

In the case of `Cc1cc(NCc2ccccc2C)nc(-c2ccc(S(C)(=O)=O)cc2)c1` [Example 95], the half-inhibitory concentration (IC50) was at most 500 nM.

As to `Cc1cc(NCc2cccnc2)nc(-c2ccc(S(C)(=O)=O)cc2)c1` [Example 15], the IC50 is at most 500 nM.

As for `COc1ccc(Nc2cc(C)cc(-c3ccc(S(C)(=O)=O)cn3)n2)cc1` [Example 70], the IC50 is at most 500 nM.

Consider `CCc1cc(-c2ccc(S(C)(=O)=O)cc2)nc(NCc2ccc(C)cn2)c1C#N` [Example 223], for which the IC50 is at most 500 nM.

For `Cc1cc(NCc2cc(C)ns2)nc(-c2ccc(S(C)(=O)=O)cc2)c1` [Example 123], the IC50 was at most 500 nM.

Take `Cc1cc(NCc2cnn(C)c2C)nc(-c2ccc(S(C)(=O)=O)cc2)c1` [Example 114]: the IC50 is at most 500 nM.

Regarding `CCN(Cc1ccccc1)c1cc(C)cc(-c2ccc(S(C)(=O)=O)cc2)n1` [Example 128], the IC50 was at most 500 nM.

Regarding `Cc1cc(OCc2ccccc2)nc(-c2ccc(S(C)(=O)=O)cc2)c1` [Example 2, 2-Benzyloxy-4-methyl-6-[4-(methylsulfonyl)phenyl]pyridine], the IC50 is at most 500 nM.

As for `Cc1cc(OCc2cc(C)on2)nc(-c2ccc(S(C)(=O)=O)cc2)c1` [Example 88], the IC50 is at most 500 nM.

For `C[C@@H](Nc1cc(C(F)(F)F)cc(-c2ccc(S(C)(=O)=O)cc2)n1)c1ccccc1` [Example 53], the IC50 was at most 500 nM.

As to `CS(=O)(=O)c1ccc(-c2cc(C(F)(F)F)cc(OCc3ccccn3)n2)cc1` [Example 164, 2-[4-(methylsulfonyl)phenyl]-6-[(2-pyridinylmethyl)oxy]-4-(trifluoromethyl)pyridine], the IC50 is at most 500 nM.

For the compound `Cc1c(CNc2cc(C(F)(F)F)cc(-c3ccc(S(C)(=O)=O)cc3)n2)cnn1C` [Example 188], the IC50 is at most 500 nM.

Turning to `CCc1cc(Nc2ccc(C)nc2)nc(-c2ccc(S(C)(=O)=O)cc2)c1` [Example 99], the IC50 was at most 500 nM.

Take `Cc1cc(NCc2ccn(C)n2)nc(-c2ccc(S(C)(=O)=O)cc2)c1` [Example 82]: the IC50 was at most 500 nM.

On to `CS(=O)(=O)c1ccc(-c2cc(C(F)(F)F)cc(NC3CCCCCC3)n2)cc1` [Example 209], for which the IC50 was at most 500 nM.

In the case of `Cc1cc(-c2ccc(S(C)(=O)=O)cc2)nc(NCC(C)C)c1C` [Example 60], the IC50 was at most 500 nM.

Take `CCc1cc(NCc2cnccn2)nc(-c2ccc(S(C)(=O)=O)cc2)c1` [Example 103]: the IC50 was at most 500 nM.

In the case of `CCc1cc(-c2ccc(S(C)(=O)=O)cc2)nc(NCc2cnn(C)c2)c1F` [Example 143], the IC50 was at most 500 nM.

In the case of `Cc1cc(NCc2ccccc2)nc(-c2ccc(S(C)(=O)=O)cc2)c1` [Example 7], the IC50 was at most 500 nM.

For the compound `CCc1cc(-c2ccc(S(C)(=O)=O)cc2)nc(N(C)Cc2ccccc2)c1` [Example 45], the IC50 is at most 500 nM.

Regarding `Cc1noc(CNc2cc(C(F)(F)F)cc(-c3ccc(S(C)(=O)=O)cc3)n2)n1` [Example 213], the IC50 was at most 500 nM.

Consider `CS(=O)(=O)c1ccc(-c2cc(C(F)(F)F)cc(N[C@H]3CC[C@@H](C)CC3)n2)cc1` [Example 206], for which the IC50 was at most 500 nM.

Turning to `CCO[C@H]1CC[C@H](Nc2cc(C(F)(F)F)cc(-c3ccc(S(C)(=O)=O)cc3)n2)CC1` [Example 221], the IC50 was at most 500 nM.

As for `Cc1cc(NCc2cccs2)nc(-c2ccc(S(C)(=O)=O)cc2)c1` [Example 44], the IC50 was at most 500 nM.

As to `COc1ccc(Nc2cc(C(F)(F)F)cc(-c3ccc(S(C)(=O)=O)cc3)n2)cc1` [Example 16], the IC50 was at most 500 nM.

As to `CN(Cc1ccco1)c1cc(C(F)(F)F)cc(-c2ccc(S(C)(=O)=O)cc2)n1` [Example 170], the IC50 is at most 500 nM.

With `Cc1cc(-c2ccc(S(C)(=O)=O)cc2)nc(NCc2ccccn2)c1C#N` [Example 210], the IC50 is at most 500 nM.

For `CCc1cc(-c2ccc(S(C)(=O)=O)cc2)nc(NCc2nc(C)cs2)c1C#N` [Example 229], the IC50 was at most 500 nM.

In the case of `CCc1cc(NCc2[nH]cnc2C)nc(-c2ccc(S(C)(=O)=O)cc2)c1` [Example 109], the IC50 is at most 500 nM.

Consider `Cc1cc(Nc2ccc(F)cc2)nc(-c2ccc(S(C)(=O)=O)cc2)c1` [Example 43], for which the IC50 was at most 500 nM.

Regarding `Cc1cc(NCc2nc(C)cs2)nc(-c2ccc(S(C)(=O)=O)cc2)c1` [Example 124], the IC50 is at most 500 nM.

For the compound `CS(=O)(=O)c1ccc(-c2cc(C(F)(F)F)cc(Nc3ccc(F)cc3)n2)cc1` [Example 169], the IC50 is at most 500 nM.

For `CCc1cc(NCc2ccco2)nc(-c2ccc(S(C)(=O)=O)cc2)c1` [Example 69], the IC50 is at most 500 nM.

`CS(=O)(=O)c1ccc(-c2cc(C(F)(F)F)cc(Oc3cccnc3)n2)cc1` [Example 150]: the IC50 is at most 500 nM.
